{"source": "paper PMC2680982", "about": "“The cAMP-Dependent Protein Kinase Inhibitor H-89 Attenuates the Bioluminescence Signal Produced by Renilla Luciferase” (PLoS ONE, 2009)", "biological_target": "T1, RLuc8 (Renilla luciferase variant) (Renilla reniformis, UniProt P27652, A55T/C124A/S130A/K136R/A143M/M185V/M253L/S287L)", "T1 construct": "RLuc8 in pRSETB, purified on Ni-NTA from E. coli", "T1 sequence (P27652 1-311 A55T/C124A/S130A/K136R/A143M/M185V/M253L/S287L)": "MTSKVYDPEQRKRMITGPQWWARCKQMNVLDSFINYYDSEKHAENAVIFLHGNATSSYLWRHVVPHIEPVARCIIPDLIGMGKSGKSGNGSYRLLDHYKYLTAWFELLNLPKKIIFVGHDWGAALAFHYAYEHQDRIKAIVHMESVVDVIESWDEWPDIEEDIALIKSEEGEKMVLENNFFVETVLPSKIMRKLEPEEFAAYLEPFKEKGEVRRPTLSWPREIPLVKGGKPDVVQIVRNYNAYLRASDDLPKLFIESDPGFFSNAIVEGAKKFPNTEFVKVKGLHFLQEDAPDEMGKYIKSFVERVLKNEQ", "test": "bioluminescence inhibition of […] purified RLuc8 with coelenterazine-h titration", "format": "biochemical", "data": [{"smiles": "O=S(=O)(NCCNC/C=C/c1ccc(Br)cc1)c1cccc2cnccc12", "note": "[H-89, N-[2-(p-bromocinnamylamino)ethyl]-5-isoquinolinesulfonamide]", "values": [{"measurement": "IC50", "result": 21, "unit": "µM"}]}]}
